Results from PubChem BioAssay (NCI).
Several values for one entry are separate records, joined by “and”; a condition that tells them apart may be missing. Identical values can stand only once.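 Method: 48-hour compound exposure of cells in 96-well plates, five concentrations, linear interpolation of endpoints. The concentration for 50% growth inhibition is given as GI50. At the TGI there is no net growth.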

Tests used:
Test in all cases: NCI-60 cell line screen, 48 h
HCT-15 colon = tested on: HCT-15 colon
HCT-116 colon = tested on: HCT-116 colon
OVCAR-3 ovarian = tested on: OVCAR-3 ovarian
M14 melanoma = tested on: M14 melanoma
CCRF-CEM leukemia = tested on: CCRF-CEM leukemia
HL-60(TB) leukemia = tested on: HL-60(TB) leukemia
MCF7 breast = tested on: MCF7 breast
ACHN renal = tested on: ACHN renal
SF-268 CNS = tested on: SF-268 CNS
RXF 393 renal = tested on: RXF 393 renal

Structure (SMILES)	GI50 (HCT-15 colon)	TGI (HCT-15 colon)	GI50 (HCT-116 colon)	TGI (HCT-116 colon)	GI50 (OVCAR-3 ovarian)	TGI (OVCAR-3 ovarian)	GI50 (M14 melanoma)	TGI (M14 melanoma)	GI50 (CCRF-CEM leukemia)	TGI (CCRF-CEM leukemia)	GI50 (HL-60(TB) leukemia)	TGI (HL-60(TB) leukemia)	GI50 (MCF7 breast)	TGI (MCF7 breast)	GI50 (ACHN renal)	TGI (ACHN renal)	GI50 (SF-268 CNS)	TGI (SF-268 CNS)	GI50 (RXF 393 renal)	TGI (RXF 393 renal)
COc1ccc(C#Cc2ccccc2C#CCCCCO)cc1	16.3 µM	29.9 µM	22.5 µM	43.7 µM	20.4 µM	40.2 µM	19.4 µM	36.2 µM	23.5 µM	53.8 µM	23.7 µM	44.7 µM	27.2 µM	59.1 µM	21.7 µM	45 µM	21.7 µM	42.9 µM	16 µM	33.6 µM
CN1CCN(c2ccc(C(=O)Nc3n[nH]c4ccc(Cc5cc(F)cc(F)c5)cc34)c(NC3CCOCC3)c2)CC1	1.87 µM and 1.32 µM	6.67 µM and 2.93 µM	1.53 µM and 1.36 µM	3.27 µM and 2.73 µM	3.33 µM and 1.47 µM	> 10 µM and 2.84 µM	1.58 µM and 1.69 µM	3.2 µM and 3.4 µM	2.93 µM and 2.05 µM	> 10 µM and 5.16 µM	1.83 µM and 1.66 µM	4.19 µM and 3.38 µM	0.983 µM and 0.485 µM	5.73 µM and 1.93 µM	2.25 µM and 1.42 µM	> 10 µM and 2.8 µM	2.25 µM and 1.45 µM	> 10 µM and 2.87 µM	1.17 µM	2.69 µM
Cc1[nH]ncc1-c1cc2nc(C3CC4CCN3CC4)[nH]c(=O)c2s1 (stereo not drawn)	2.44 µM	> 100 µM	1.16 µM	> 100 µM	3.74 µM	> 100 µM	4.49 µM	83.5 µM	2.36 µM	> 100 µM	2.06 µM	6.15 µM	2.58 µM	> 100 µM	1.88 µM	> 100 µM	3.8 µM	> 100 µM	2.36 µM	5.96 µM
O=[N+]([O-])c1ccc(Nc2ccccc2-c2ccccc2)c2nonc12	13.2 µM	28.2 µM	13.9 µM	31.6 µM	9.15 µM	22.8 µM	13.3 µM	30.6 µM	15.6 µM	> 72.2 µM	17.8 µM	51.1 µM	15.3 µM	> 72.4 µM	20.8 µM	87.5 µM	14.9 µM	36.8 µM	13.7 µM	28.7 µM
Nc1ccn(C2OC(CO)C(O)C2F)c(=O)n1 (stereo not drawn)	> 5000 µM	> 5000 µM	> 5000 µM	> 5000 µM	> 5000 µM	> 5000 µM	> 5000 µM	> 5000 µM	1.67 µM	–	189 µM	–	2.98 µM	> 5000 µM	> 5000 µM	> 5000 µM	> 5000 µM	> 5000 µM	> 5000 µM	> 5000 µM
Cc1c2cc[nH]c(=O)c2c(C)c2c1[nH]c1cc(OCCN3CCN(C)CC3)ccc12	1.88 µM	12 µM	0.339 µM	2.09 µM	1.24 µM	7.7 µM	1.2 µM	2.94 µM	1.58 µM	8.99 µM	1.44 µM	4.36 µM	0.577 µM	6.73 µM	0.473 µM	3.83 µM	0.74 µM	7.97 µM	1.21 µM	2.72 µM
COc1cccc2c1C(=O)c1c(O)c3c(c(O)c1C2=O)CC(O)(C(C)=O)CC3OC1CC(N)C(O)C(C)O1 (stereo not drawn)	0.824 µg/mL	7.86 µg/mL	–	2.06 µg/mL	0.0426 µg/mL	0.958 µg/mL	0.0403 µg/mL	0.705 µg/mL	–	0.324 µg/mL	–	0.0356 µg/mL	–	0.484 µg/mL	0.0176 µg/mL	0.1 µg/mL	–	0.262 µg/mL	0.263 µg/mL	1.48 µg/mL
Cc1ccc(NCCCN2CCN(CCCNc3ccc(C)c4sc5ccccc5c(=O)c34)CC2)c2c(=O)c3ccccc3sc12	–	> 100 µM	–	> 100 µM	–	> 100 µM	–	> 100 µM	–	> 100 µM	–	> 100 µM	–	> 100 µM	–	> 100 µM	–	> 100 µM	–	> 100 µM
Cc1cc(C)nc(NC(N)=NCCc2ccccc2)n1	5.09 µM	> 100 µM	2.78 µM	> 100 µM	2.76 µM	8.35 µM	2.8 µM	24.2 µM	5.19 µM	> 100 µM	2.9 µM	12.4 µM	2.72 µM	73.6 µM	4.94 µM	> 100 µM	3.4 µM	41.9 µM	7.22 µM	77.2 µM
